Where a SMILES comes first, the peptide text is derived from it.
Key:
[1] = target: T1, mouse serum albumin (MSA) (Mus musculus, UniProt P07724); test: MSA conjugation assay; type: binding; conditions: PBS pH 7.4, 37 °C; RP-HPLC and MALDI-TOF
T1 construct: purchased Equitech-Bio; Inc., USA
From the text: RP-HPLC and MALDI-TOF analysis were used to confirm completion of the reaction.

in vitro = in vitro ADME; conditions: mouse, plasma
From the text: Figure 1S. Plasma ex vivo stability profile of the ML and C23 inhibitor determined by Ultra Performance Liquid Chromatography (UPLC).

[2] = design: method as in PMID 25682874; conditions: cited from earlier work
recombinant human PACE4 = target: T2, recombinant human PACE4 (Homo sapiens, UniProt P29122); test: Enzyme kinetic inhibition of recombinant hPACE4; type: biochemical; conditions: calculated from IC50 by Cheng and Prusoff, mean ± SD of three experiments
T2 construct: made in house
T2 sequence (P29122 150-969): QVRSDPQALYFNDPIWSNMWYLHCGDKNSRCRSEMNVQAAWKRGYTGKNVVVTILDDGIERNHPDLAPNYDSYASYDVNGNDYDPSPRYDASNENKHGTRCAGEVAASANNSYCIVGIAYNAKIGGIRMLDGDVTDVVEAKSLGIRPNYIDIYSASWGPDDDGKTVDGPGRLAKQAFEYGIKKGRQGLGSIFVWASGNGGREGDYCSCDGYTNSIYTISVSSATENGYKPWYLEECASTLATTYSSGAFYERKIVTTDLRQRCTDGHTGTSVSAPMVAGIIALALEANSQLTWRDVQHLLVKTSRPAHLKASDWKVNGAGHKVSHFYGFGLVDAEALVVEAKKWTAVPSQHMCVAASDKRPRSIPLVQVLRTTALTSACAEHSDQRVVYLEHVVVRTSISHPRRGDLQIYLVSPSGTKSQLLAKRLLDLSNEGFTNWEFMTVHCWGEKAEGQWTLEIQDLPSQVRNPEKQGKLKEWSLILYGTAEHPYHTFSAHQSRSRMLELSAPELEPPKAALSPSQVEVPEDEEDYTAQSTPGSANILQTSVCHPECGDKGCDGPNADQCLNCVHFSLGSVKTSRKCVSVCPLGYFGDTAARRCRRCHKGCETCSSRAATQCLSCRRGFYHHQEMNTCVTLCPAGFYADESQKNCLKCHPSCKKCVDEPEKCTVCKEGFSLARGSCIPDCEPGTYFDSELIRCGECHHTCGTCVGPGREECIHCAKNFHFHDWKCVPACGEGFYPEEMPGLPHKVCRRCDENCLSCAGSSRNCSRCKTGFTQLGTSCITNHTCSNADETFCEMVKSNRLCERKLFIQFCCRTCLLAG
Protocol: (§1) The inhibitory constant (Ki) was calculated from the IC50 values using the equation of Cheng and Prusoff. Data are the mean ± SD of three independent experiments. The concentration of peptides that inhibited cell growth by 50% (IC50) was determined by MTT cell survival assays in DU145 and LNCaP cell lines. Data represent the mean ± SEM of three independent experiments. Acute cytotoxicity of the compounds at the selected concentrations was measured by lactate dehydrogenase (LDH) assay after 4 h of incubation with DU145 cells. […] Previously published compound: [a] ref.[12]. ML inhibitor was used as control and was re-assayed in presented experiments.
Enzyme kinetic measurements were performed with recombinant hPACE4 as described previously. Enzyme and substrate concentrations used in the present study are presented in Supplementary Table S2.

DU145 cells [3] = conditions: 72 h
Protocol: as §1
(§2) DU145 and LNCaP cells were maintained at low passages (below 30) and cultured in RPMI 1640 (Wisent Bioproducts, QC) with 5 and 10% fetal bovine serum, respectively. For MTT proliferation assays 3500 LNCaP (on poly-L-lysine coated wells) or 1500 DU145 cells were seeded in 96-well plates, and after 24 h, the cells were treated with various concentrations of inhibitors (from 300 to 1 μM). Next, the cells were incubated for 72 h with peptides prior to addition of MTT reagent (Sigma–Aldrich, Canada) at a final concentration of 1 mg/mL. Formazan salt was solubilized with 50 μL DMSO and the metabolic activity was normalized relatively to vehicle-treated cells (sterile bi-distilled water). IC50 values were determined using Prism 5.0 (GraphPad Software, USA), as previously described. For LDH assay, the LDH Cytotoxicity Detection Kit (Promega, USA) was used to quantify the release of lactate dehydrogenase following membrane disruption. As described in our previous work[15], DU145 cells were seeded at a density of 3000 cells/well and allowed to incubate for 24 h. Then, the media was subsequently replaced and cells were incubated with compounds at the selected concentration. Cells treated with 1% SDS were used as a control for maximal LDH release and further relative quantification.

LNCaP cells = conditions: 72 h
Protocol: as §1, §2

DU145 cells [4] = test: LDH release acute cytotoxicity assay; type: cell-based; conditions: for LDH release DU145: 4 h incubation, selected concentrations
Protocol: as §1, §2

human PSA (hPSA) = target: T3, human PSA (hPSA) (Homo sapiens, UniProt P07288); test: hPSA cleavage of prodrugs; type: biochemical; conditions: extended incubation time up to 24 h; RP-HPLC
T3 construct: enzymatically active hPSA extracted from seminal fluid (Millipore, USA); purchased Millipore, USA; host or cells: human seminal fluid
Protocol: To determine PSA cleavage efficiency, peptide (125 µM final concentration; approximately 20 µg) were incubated with a final concentration of 20 µg/mL of enzymatically active hPSA extracted from seminal fluid (Millipore, USA) in 50 mM Tris buffer pH 7.4. Samples were analyzed by RP-HPLC (using 35 µL of the reaction solution) by comparing the resulting cleavage product over a standard curve generated using a synthetic cleaved peptide (peptides 1–4). The number of nmol of a cleaved peptide produced over time was then used to calculate the specific activity in pmol product/min/100 pmol PSA to compare the different substrate peptide between each other.

[5] = 4 h incubation with DU145 cells at 100 μM

T1 sequence (P07724 25-608): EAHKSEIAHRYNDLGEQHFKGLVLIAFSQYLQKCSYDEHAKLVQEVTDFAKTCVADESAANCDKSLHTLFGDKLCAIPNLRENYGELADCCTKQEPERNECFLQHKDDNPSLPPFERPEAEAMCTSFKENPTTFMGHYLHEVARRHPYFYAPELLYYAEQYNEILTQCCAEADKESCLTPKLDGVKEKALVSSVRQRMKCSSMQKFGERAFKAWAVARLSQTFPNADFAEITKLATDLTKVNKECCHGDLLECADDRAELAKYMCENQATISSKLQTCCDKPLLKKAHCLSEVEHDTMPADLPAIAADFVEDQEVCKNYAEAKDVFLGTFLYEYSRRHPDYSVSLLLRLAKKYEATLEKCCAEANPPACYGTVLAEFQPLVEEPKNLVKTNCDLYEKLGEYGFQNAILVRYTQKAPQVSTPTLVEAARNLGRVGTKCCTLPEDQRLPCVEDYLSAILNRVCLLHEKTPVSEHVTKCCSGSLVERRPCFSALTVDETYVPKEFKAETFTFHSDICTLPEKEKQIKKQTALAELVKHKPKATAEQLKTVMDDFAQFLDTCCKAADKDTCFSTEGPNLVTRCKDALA
T3 sequence (P07288 25-261): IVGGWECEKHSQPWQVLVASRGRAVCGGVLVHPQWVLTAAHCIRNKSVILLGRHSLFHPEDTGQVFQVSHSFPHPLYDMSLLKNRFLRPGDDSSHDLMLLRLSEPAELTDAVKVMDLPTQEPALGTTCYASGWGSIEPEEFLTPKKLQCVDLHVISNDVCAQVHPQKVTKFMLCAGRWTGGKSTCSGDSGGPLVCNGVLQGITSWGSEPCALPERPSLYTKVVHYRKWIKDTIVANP

Molecule: EMC-RSSYYSL[4-Apaa]LLLLRVKR-NH2 [Ligand 2]
- time to full conjugation to MSA [1]: 1 h

Molecule: CC(=O)N[C@H](CC(C)C)C(=O)N[C@@H](CC(C)C)C(=O)N[C@@H](CC(C)C)C(=O)N[C@@H](CC(C)C)C(=O)N[C@@H](CCCNC(=N)N)C(=O)N[C@H](C(=O)N[C@@H](CCCCN)C(=O)NCc1ccc(C(=N)N)cc1)C(C)C [C23, Ac-[DLeu]LLLRVK-amidinobenzylamide] (HELM PEPTIDE1{[ac].[dL].L.L.L.R.V.K.[N=C(N)c1ccc(CN[*:1])cc1]}$$$$V2.0)
- half-life (in vitro): 104 ± 3.6 min
- in vivo half-life (t1/2) [2]: 9 ± 3 min
- time post-injection after which rapidly eliminated ([2]; radiolabeled version): 20 min

Molecule: CC(C)C[C@H](NC(=O)Cc1ccc(NC(=O)[C@H](CC(C)C)NC(=O)[C@@H](N)CO)cc1)C(=O)N[C@@H](CC(C)C)C(=O)N[C@@H](CC(C)C)C(=O)N[C@@H](CC(C)C)C(=O)N[C@@H](CCCNC(=N)N)C(=O)N[C@H](C(=O)N[C@@H](CCCCN)C(=O)N[C@@H](CCCNC(=N)N)C(N)=O)C(C)C [Peptide 2] (HELM PEPTIDE1{S.L.[O=C(Cc1ccc(N[*:1])cc1)[*:2]].L.L.L.L.R.V.K.R.[am]}$$$$V2.0)
- Ki (recombinant human PACE4): 68 ± 10 nM
- IC50 (DU145 cells [3]): 19 ± 7 µM
- IC50 (LNCaP cells): 50 ± 10 µM
- LDH release relative to the untreated cells (DU145 cells [4]; 4 h incubation with DU145 cells at the IC50 concentration): < 5%
- LDH release DU145 (DU145 cells [4]): < 5%

Molecule: EMC-RSSYYSLLLLLRVKR-NH2 ({EMC}-RSSYYSLLLLLRVKR-NH2) [Ligand 1]
- time to full conjugation to MSA [1]: 1 h

Molecule: CC(C)C[C@H](NC(=O)COCCOCCNC(=O)[C@H](CC(C)C)NC(=O)[C@@H](N)CO)C(=O)N[C@@H](CC(C)C)C(=O)N[C@@H](CC(C)C)C(=O)N[C@@H](CC(C)C)C(=O)N[C@@H](CCCNC(=N)N)C(=O)N[C@H](C(=O)N[C@@H](CCCCN)C(=O)N[C@@H](CCCNC(=N)N)C(N)=O)C(C)C [Peptide 4] (HELM PEPTIDE1{S.L.[O=C(COCCOCCN[*:1])[*:2]].L.L.L.L.R.V.K.R.[am]}$$$$V2.0)
- Ki (recombinant human PACE4): 62 ± 3 nM
- LDH release relative to the untreated cells (DU145 cells [4]; [5]): < 5%
- LDH release DU145 (DU145 cells [4]): < 5%

Molecule: Ac-LLLLRVKR-NH2 [ML, reference compound]
- IC50 (DU145 cells [3]): 90 ± 2 µM
- IC50 (LNCaP cells): 130 ± 10 µM
- LDH release DU145 (DU145 cells [4]): < 5%
- half-life (in vitro): 7.8 ± 2.3 min

Molecule: CC(C)C[C@H](NC(=O)CCCNC(=O)[C@H](CC(C)C)NC(=O)[C@@H](N)CO)C(=O)N[C@@H](CC(C)C)C(=O)N[C@@H](CC(C)C)C(=O)N[C@@H](CC(C)C)C(=O)N[C@@H](CCCNC(=N)N)C(=O)N[C@H](C(=O)N[C@@H](CCCCN)C(=O)N[C@@H](CCCNC(=N)N)C(N)=O)C(C)C [Peptide 3] (HELM PEPTIDE1{S.L.[O=C(CCCN[*:1])[*:2]].L.L.L.L.R.V.K.R.[am]}$$$$V2.0)
- Ki (recombinant human PACE4): 56 ± 4 nM
- LDH release relative to the untreated cells (DU145 cells [4]; [5]): < 5%
- LDH release DU145 (DU145 cells [4]): < 5%

Molecule: MSA-EMC-RSSYYSLLLLLRVKR-NH2 [prodrug 1]
- release of the ML derivative by hPSA (human PSA (hPSA)): no release product was detected

From publication PMC6376031, “Enhanced anti-tumor activity of the Multi-Leu peptide PACE4 inhibitor transformed into an albumin-bound tumor-targeting prodrug” (Scientific Reports, 2019)
